Assay results reported in the supplement of paper PMC11208160.

Assay: recombinant barcode read abundance after kanamycin selection (control-corrected) (log10(CPM+1)); higher = more efficient recombination; sequences stand for … in AGTGCAGAGAAAATCGGCCAGTTTTCTCTGCCTGCAGTCCGCATGCCGT…ATTTATGCAGCGGACTGCCTTTCTCCCAAAGTGATAAACCGGACAGTATCATGGACCGGTTTTCCCGGTAATCCGTATTTGCAAGGTTGGTTTCACT; site = the 11-nt target
Summary of the method: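 IS621 bridge RNA target-binding loops were paired with targets in a pooled library tested in E. coli. After co-electroporation with a donor plasmid, cells were plated in two replicates on chloramphenicol/ampicillin LB agar (control) and on chloramphenicol/ampicillin/kanamycin carrying 0.1 mM IPTG. Barcodes at recombinant junctions were counted as counts per million, averaged and control-corrected to give recombination efficiency. Values are log10(CPM+1).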

Sequence | recombinant barcode read abundance (log10)
GGTGCCCAGTGGGTTCTAACCTGTTGCCGCT [GGTGCCCCTCG_LTGcore_AG_RTGcore_AG] (site GGTGCCCCTCG) (LTG core: AG, RTG core: AG) | 0.102
GGTGCCCCTTGGGTTCTAACCTGTTGCCGAT [GGTGCCCCTCG_LTGcore_CT_RTGcore_AT] (site GGTGCCCCTCG) (LTG core: CT, RTG core: AT) | 0.19
GGTGCCCCTTGGGTTCTAACCTGTTGCCGCC [GGTGCCCCTCG_LTGcore_CT_RTGcore_GG] (site GGTGCCCCTCG) (LTG core: CT, RTG core: GG) | 0.0795
GGTGCCCCTTGGGTTCTAACCTGTTGCCGCG [GGTGCCCCTCG_LTGcore_CT_RTGcore_CG] (site GGTGCCCCTCG) (LTG core: CT, RTG core: CG) | 0.222
GGTGCCCCTTGGGTTCTAACCTGTTGCCGCT [GGTGCCCCTCG_LTGcore_CT_RTGcore_AG] (site GGTGCCCCTCG) (LTG core: CT, RTG core: AG) | 0.0402
GGTGCCCCTTGGGTTCTAACCTGTTGCCGGC [GGTGCCCCTCG_LTGcore_CT_RTGcore_GC] (site GGTGCCCCTCG) (LTG core: CT, RTG core: GC) | 0.83
GGTGCCCCTTGGGTTCTAACCTGTTGCCGGT [GGTGCCCCTCG_LTGcore_CT_RTGcore_AC] (site GGTGCCCCTCG) (LTG core: CT, RTG core: AC) | 0.0162
GGTGCCCGGTGGGTTCTAACCTGTTGCCGCC [GGTGCCCCTCG_LTGcore_GG_RTGcore_GG] (site GGTGCCCCTCG) (LTG core: GG, RTG core: GG) | 0.0147
GGTGCCCGTTGGGTTCTAACCTGTTGCCGAG [GGTGCCCCTCG_LTGcore_GT_RTGcore_CT] (site GGTGCCCCTCG) (LTG core: GT, RTG core: CT) | 0.0597
GGTGCCCTTTGGGTTCTAACCTGTTGCCGAA [GGTGCCCCTCG_LTGcore_TT_RTGcore_TT] (site GGTGCCCCTCG) (LTG core: TT, RTG core: TT) | 0.622
GTCGCCCAATGGGTTCTAACCTGTTGCTAAG [GTCGCCCCTTA_LTGcore_AA_RTGcore_CT] (site GTCGCCCCTTA) (LTG core: AA, RTG core: CT) | 0.688
GTCGCCCACTGGGTTCTAACCTGTTGCTAAG [GTCGCCCCTTA_LTGcore_AC_RTGcore_CT] (site GTCGCCCCTTA) (LTG core: AC, RTG core: CT) | 0.309
GTCGCCCCATGGGTTCTAACCTGTTGCTAAG [GTCGCCCCTTA_LTGcore_CA_RTGcore_CT] (site GTCGCCCCTTA) (LTG core: CA, RTG core: CT) | 2.04
GTCGCCCCCTGGGTTCTAACCTGTTGCTAAG [GTCGCCCCTTA_LTGcore_CC_RTGcore_CT] (site GTCGCCCCTTA) (LTG core: CC, RTG core: CT) | 0.771
GTCGCCCCTTGGGTTCTAACCTGTTGCTAAT [GTCGCCCCTTA_LTGcore_CT_RTGcore_AT] (site GTCGCCCCTTA) (LTG core: CT, RTG core: AT) | 0.474
GTCGCCCCTTGGGTTCTAACCTGTTGCTACG [GTCGCCCCTTA_LTGcore_CT_RTGcore_CG] (site GTCGCCCCTTA) (LTG core: CT, RTG core: CG) | 0.323
GTCGCCCCTTGGGTTCTAACCTGTTGCTAGA [GTCGCCCCTTA_LTGcore_CT_RTGcore_TC] (site GTCGCCCCTTA) (LTG core: CT, RTG core: TC) | 0.304
GTCGCCCGCTGGGTTCTAACCTGTTGCTAGC [GTCGCCCCTTA_LTGcore_GC_RTGcore_GC] (site GTCGCCCCTTA) (LTG core: GC, RTG core: GC) | 0.459
GTCGCCCTCTGGGTTCTAACCTGTTGCTAAG [GTCGCCCCTTA_LTGcore_TC_RTGcore_CT] (site GTCGCCCCTTA) (LTG core: TC, RTG core: CT) | 0
TAAGAATACTGGGTTCTAACCTGTTGCCTGT [TAAGAATCTAG_LTGcore_AC_RTGcore_AC] (site TAAGAATCTAG) (LTG core: AC, RTG core: AC) | 0.0208
TAAGAATCATGGGTTCTAACCTGTTGCCTAG [TAAGAATCTAG_LTGcore_CA_RTGcore_CT] (site TAAGAATCTAG) (LTG core: CA, RTG core: CT) | 0.838
TAAGAATCTTGGGTTCTAACCTGTTGCCTAC [TAAGAATCTAG_LTGcore_CT_RTGcore_GT] (site TAAGAATCTAG) (LTG core: CT, RTG core: GT) | 0.116
TAAGAATCTTGGGTTCTAACCTGTTGCCTCA [TAAGAATCTAG_LTGcore_CT_RTGcore_TG] (site TAAGAATCTAG) (LTG core: CT, RTG core: TG) | 0.343

Sequence | recombinant barcode read abundance (log10)
TAAGAATCTTGGGTTCTAACCTGTTGCCTCC [TAAGAATCTAG_LTGcore_CT_RTGcore_GG] (site TAAGAATCTAG) (LTG core: CT, RTG core: GG) | 0.142
TAAGAATCTTGGGTTCTAACCTGTTGCCTGT [TAAGAATCTAG_LTGcore_CT_RTGcore_AC] (site TAAGAATCTAG) (LTG core: CT, RTG core: AC) | 0.0874
TAAGAATGATGGGTTCTAACCTGTTGCCTAG [TAAGAATCTAG_LTGcore_GA_RTGcore_CT] (site TAAGAATCTAG) (LTG core: GA, RTG core: CT) | 0.0742
TAAGAATGCTGGGTTCTAACCTGTTGCCTGC [TAAGAATCTAG_LTGcore_GC_RTGcore_GC] (site TAAGAATCTAG) (LTG core: GC, RTG core: GC) | 0.0564
TAAGAATGGTGGGTTCTAACCTGTTGCCTCC [TAAGAATCTAG_LTGcore_GG_RTGcore_GG] (site TAAGAATCTAG) (LTG core: GG, RTG core: GG) | 0.113
TAAGAATTCTGGGTTCTAACCTGTTGCCTGA [TAAGAATCTAG_LTGcore_TC_RTGcore_TC] (site TAAGAATCTAG) (LTG core: TC, RTG core: TC) | 0.0111
TAAGAATTGTGGGTTCTAACCTGTTGCCTCA [TAAGAATCTAG_LTGcore_TG_RTGcore_TG] (site TAAGAATCTAG) (LTG core: TG, RTG core: TG) | 0.0917
TAGAGGGATTGGGTTCTAACCTGTTGCGGAG [TAGAGGGCTCC_LTGcore_AT_RTGcore_CT] (site TAGAGGGCTCC) (LTG core: AT, RTG core: CT) | 0.147
TAGAGGGCGTGGGTTCTAACCTGTTGCGGAG [TAGAGGGCTCC_LTGcore_CG_RTGcore_CT] (site TAGAGGGCTCC) (LTG core: CG, RTG core: CT) | 2.42
TAGAGGGGTTGGGTTCTAACCTGTTGCGGAG [TAGAGGGCTCC_LTGcore_GT_RTGcore_CT] (site TAGAGGGCTCC) (LTG core: GT, RTG core: CT) | 0.85
TCGCGACATTGGGTTCTAACCTGTTGCCGAT [TCGCGACCTCG_LTGcore_AT_RTGcore_AT] (site TCGCGACCTCG) (LTG core: AT, RTG core: AT) | 0.205
TCGCGACCCTGGGTTCTAACCTGTTGCCGAG [TCGCGACCTCG_LTGcore_CC_RTGcore_CT] (site TCGCGACCTCG) (LTG core: CC, RTG core: CT) | 0.466
TCGCGACCGTGGGTTCTAACCTGTTGCCGCG [TCGCGACCTCG_LTGcore_CG_RTGcore_CG] (site TCGCGACCTCG) (LTG core: CG, RTG core: CG) | 0.0313
TCGCGACCTTGGGTTCTAACCTGTTGCCGAC [TCGCGACCTCG_LTGcore_CT_RTGcore_GT] (site TCGCGACCTCG) (LTG core: CT, RTG core: GT) | 0.201
TCGCGACCTTGGGTTCTAACCTGTTGCCGGC [TCGCGACCTCG_LTGcore_CT_RTGcore_GC] (site TCGCGACCTCG) (LTG core: CT, RTG core: GC) | 0.0211
TCGCGACCTTGGGTTCTAACCTGTTGCCGTG [TCGCGACCTCG_LTGcore_CT_RTGcore_CA] (site TCGCGACCTCG) (LTG core: CT, RTG core: CA) | 0.0363
TCGCGACGGTGGGTTCTAACCTGTTGCCGAG [TCGCGACCTCG_LTGcore_GG_RTGcore_CT] (site TCGCGACCTCG) (LTG core: GG, RTG core: CT) | 0.167
TCGCGACTGTGGGTTCTAACCTGTTGCCGAG [TCGCGACCTCG_LTGcore_TG_RTGcore_CT] (site TCGCGACCTCG) (LTG core: TG, RTG core: CT) | 0.302
TCGCGACTTTGGGTTCTAACCTGTTGCCGAG [TCGCGACCTCG_LTGcore_TT_RTGcore_CT] (site TCGCGACCTCG) (LTG core: TT, RTG core: CT) | 0.282
TCTACCCAGTGGGTTCTAACCTGTTGCTGCT [TCTACCCCTCA_LTGcore_AG_RTGcore_AG] (site TCTACCCCTCA) (LTG core: AG, RTG core: AG) | 0.24
TCTACCCCCTGGGTTCTAACCTGTTGCTGAG [TCTACCCCTCA_LTGcore_CC_RTGcore_CT] (site TCTACCCCTCA) (LTG core: CC, RTG core: CT) | 0.0931
TCTACCCCTTGGGTTCTAACCTGTTGCTGAG [TCTACCCCTCA_LTGcore_CT_RTGcore_CT] (site TCTACCCCTCA) (LTG core: CT, RTG core: CT) | 0.783
